Where two headings read alike, the source gives them in different places. Values belong to the molecule of their own block, whether it stands above or below them.
Experiments:
Format in all cases: cell-based
E. cloacae M-20 = assay: MIC by agar dilution (CLSI) against highly resistant ESBL strain; conditions: E. cloacae M-20
Method: (§1) The results on activity of cefepime and other cephalosporin antibacterial agents in combination with tazobactam against highly resistant ESBL strains are given Table 1. In a typical study, overnight grown bacterial cultures were diluted appropriately and inoculated on the agar media containing doubling dilutions of the antibiotic. Observation for growth or no growth was performed after 16-20 h of incubation at 35±2° C. in ambient air. The overall procedure was performed as per Clinical and Laboratory Standards Institute (CLSI) recommendations. This experimental was followed for Examples 2-4 and 6 below (Table 2-4 and 7).

E. coli 7MP [1] = assay: as above; conditions: E. coli 7MP
Method: as §1

E. coli B-89 [2] = assay: as above; conditions: E. coli B-89
Method: as §1

E. coli B123 = assay: as above; conditions: for Activity (MIC, method of Example 1), Table 7: E. coli B-123; for MIC: Escherichia coli, B123, E. coli B123, read-out: MIC
Method: as §1

E. coli M50 [3] = assay: as above
Method: as §1

E. coli 7MP [4] = assay: Quantitative drug diffusion assay (disc, zone of inhibition, CLSI); parameters: key to Interpretation of zone as per CLSI recommendations: R: Resistant; I: Intermediate; S: Sensitive (Interpretation as per CLSI recommendations, 2010)
Source text: (§2) Activity of cefepime in combination with tazobactam and various penicillins in combination with respective ESBL inhibitors was also investigated against highly resistant ESBL strains in quantitative drug diffusion assay performed as per CLSI recommendations (Clinical and Laboratory Standards Institute (CLSI), performance Standards for Antimicrobial Susceptibility Testing, 20th Informational Supplement, M 100-S20, Volume 30, No. 1, 2010).
(§3) In a typical study, overnight grown bacterial cultures after appropriate dilution were seed inoculated in the molten, cooled agar media and plates poured. Antibiotics containing 6 mm diameter discs were place on the top of the agar surface. Zone of inhibition based observation was performed after 16-18 h of incubation at 35±2° C. in ambient air. The overall procedure was performed as per CLSI recommendations (Table 5 and 6). These assays are routinely used in determining possibility of treating a particular infection using antibiotic and/or their combinations. For example, in case of treating an infection caused by E. coli (M138) using Augmentin® [commercially available combination: Amoxicillin (500 mg)+Clavulanic acid (125 mg)], the zone inhibition values need to be in the sensitive (S) range.

E. coli B-123 = assay: as above; parameters: key to Interpretation of zone as per CLSI recommendations: R: Resistant; I: Intermediate; S: Sensitive (Interpretation as per CLSI recommendations, 2010)
Source text: as §2, §3

E. coli B-89 [5] = assay: as above; parameters: key to Interpretation of zone as per CLSI recommendations: R: Resistant; I: Intermediate; S: Sensitive (Interpretation as per CLSI recommendations, 2010)
Source text: as §2, §3

E. coli M-138 = assay: as above; parameters: key to Interpretation of zone as per CLSI recommendations: R: Resistant; I: Intermediate; S: Sensitive (Interpretation as per CLSI recommendations, 2010)
Source text: as §2, §3

E. coli M50 [6] = assay: as above; parameters: key to Interpretation of zone as per CLSI recommendations: R: Resistant; I: Intermediate; S: Sensitive (Interpretation as per CLSI recommendations, 2010)
Source text: as §2, §3

E. coli S-112 = assay: as above; parameters: key to Interpretation of zone as per CLSI recommendations: R: Resistant; I: Intermediate; S: Sensitive (Interpretation as per CLSI recommendations, 2010)
Source text: as §2, §3

[7] = Enterobacter cloacae, M20, 20 h, Tazobactam 0 mcg (antibiotic alone), read-out: MIC
[8] = Escherichia coli, 7MP, 20 h, Tazobactam 0 mcg (antibiotic alone), read-out: MIC
[9] = Escherichia coli, B89, 20 h, Tazobactam 0 mcg (antibiotic alone), read-out: MIC
[10] = Tazobactam 0 mcg (antibiotic alone)
[11] = Escherichia coli, 20 h, Tazobactam 0 mcg (antibiotic alone), read-out: MIC
[12] = ESBL inhibitor 0 mcg (antibiotic alone)
[13] = Table 6, with Tazobactam 10 mcg

Activity (MIC, method of Example 1), Table 7 (E. cloacae M-20; antibiotic alone): > 64 µg/mL
Activity (MIC, method of Example 1), Table 7 (E. cloacae M-20; with Clavulanic acid 4 mcg): 16 µg/mL
Activity (MIC, method of Example 1), Table 7 (E. cloacae M-20; with Clavulanic acid 8 mcg): 8 µg/mL
Activity (MIC, method of Example 1), Table 7 (E. cloacae M-20; with Sulbactam 4 mcg): 32 µg/mL
Activity (MIC, method of Example 1), Table 7 (E. cloacae M-20; with Sulbactam 8 mcg): 16 µg/mL
Activity (MIC, method of Example 1), Table 7 (E. cloacae M-20; with Tazobactam 4 mcg): 8 µg/mL
MIC (E. cloacae M-20; with Tazobactam 4 mcg): 8 µg/mL
MIC (E. cloacae M-20; with Tazobactam 8 mcg): 4 µg/mL
Activity (MIC, method of Example 1), Table 7 (E. cloacae M-20; with Tazobactam, (4 mcg)): 4 µg/mL
MIC (E. cloacae M-20; [7]): > 64 µg/mL
Activity (MIC, method of Example 1), Table 7 (E. coli 7MP [1]; antibiotic alone): > 64 µg/mL
Activity (MIC, method of Example 1), Table 7 (E. coli 7MP [1]; with Clavulanic acid 4 mcg): 16 µg/mL
Activity (MIC, method of Example 1), Table 7 (E. coli 7MP [1]; with Clavulanic acid 8 mcg): 8 µg/mL
Activity (MIC, method of Example 1), Table 7 (E. coli 7MP [1]; with Sulbactam 4 mcg): 16 µg/mL
Activity (MIC, method of Example 1), Table 7 (E. coli 7MP [1]; with Sulbactam 8 mcg): 16 µg/mL
Activity (MIC, method of Example 1), Table 7 (E. coli 7MP [1]; with Tazobactam 4 mcg): 8 µg/mL
MIC (E. coli 7MP [1]; with Tazobactam 4 mcg): 8 µg/mL
MIC (E. coli 7MP [1]; with Tazobactam 8 mcg): 4 µg/mL
Activity (MIC, method of Example 1), Table 7 (E. coli 7MP [1]; with Tazobactam, (4 mcg)): 4 µg/mL
MIC (E. coli 7MP [1]; [8]): > 64 µg/mL
MIC (E. coli B-89 [2]; with Tazobactam 4 mcg): 4 µg/mL
MIC (E. coli B-89 [2]; with Tazobactam 8 mcg): 2 µg/mL
MIC (E. coli B-89 [2]; [9]): > 64 µg/mL
Activity (MIC, method of Example 1), Table 7 (E. coli B123; antibiotic alone): > 64 µg/mL
Activity (MIC, method of Example 1), Table 7 (E. coli B123; with Clavulanic acid 4 mcg): 16 µg/mL
Activity (MIC, method of Example 1), Table 7 (E. coli B123; with Clavulanic acid 8 mcg): 8 µg/mL
Activity (MIC, method of Example 1), Table 7 (E. coli B123; with Sulbactam 4 mcg): 8 µg/mL
Activity (MIC, method of Example 1), Table 7 (E. coli B123; with Sulbactam 8 mcg): 16 µg/mL
Activity (MIC, method of Example 1), Table 7 (E. coli B123; with Tazobactam 4 mcg): 4 µg/mL
Activity (MIC, method of Example 1), Table 7 (E. coli B123; with Tazobactam, (4 mcg)): 2 µg/mL
MIC (E. coli B123; [10]): > 64 µg/mL
MIC (E. coli B123; with Tazobactam 4 mcg): 4 µg/mL
MIC (E. coli B123; with Tazobactam 8 mcg): 2 µg/mL
MIC (E. coli M50 [3]; [11]): > 64 µg/mL
MIC (E. coli M50 [3]; with Tazobactam 4 mcg): 2 µg/mL
MIC (E. coli M50 [3]; with Tazobactam 8 mcg): 2 µg/mL
Structure (SMILES): CO/N=C(\C(=O)N[C@@H]1C(=O)N2C(C(=O)[O-])=C(C[n+]3cccc4c3CCC4)CS[C@H]12)c1csc(N)n1 [Cefpirome]
Zone of Inhibition (E. coli 7MP [4]; [12]): 11 mm
Interpretation of zone as per CLSI recommendations (E. coli 7MP [4]; Table 6, ESBL inhibitor 0 mcg): (R)
Interpretation of zone as per CLSI recommendations (E. coli 7MP [4]; [13]): (S)
Zone of Inhibition (E. coli 7MP [4]; with Tazobactam 10 mcg): 18.5 mm
Zone of Inhibition (E. coli B-123; [12]): 8 mm
Interpretation of zone as per CLSI recommendations (E. coli B-123; Table 6, ESBL inhibitor 0 mcg): (R)
Interpretation of zone as per CLSI recommendations (E. coli B-123; [13]): (S)
Zone of Inhibition (E. coli B-123; with Tazobactam 10 mcg): 20 mm
Zone of Inhibition (E. coli B-89 [5]; [12]): Nil
Interpretation of zone as per CLSI recommendations (E. coli B-89 [5]; Table 6, ESBL inhibitor 0 mcg): (R)
Interpretation of zone as per CLSI recommendations (E. coli B-89 [5]; [13]): (S)
Zone of Inhibition (E. coli B-89 [5]; with Tazobactam 10 mcg): 17.5 mm
Zone of Inhibition (E. coli M-138; [12]): Nil
Interpretation of zone as per CLSI recommendations (E. coli M-138; Table 6, ESBL inhibitor 0 mcg): (R)
Interpretation of zone as per CLSI recommendations (E. coli M-138; [13]): (S)
Zone of Inhibition (E. coli M-138; with Tazobactam 10 mcg): 21 mm
Zone of Inhibition (E. coli M50 [6]; [12]): Nil
Interpretation of zone as per CLSI recommendations (E. coli M50 [6]; Table 6, ESBL inhibitor 0 mcg): (R)
Interpretation of zone as per CLSI recommendations (E. coli M50 [6]; [13]): (S)
Zone of Inhibition (E. coli M50 [6]; with Tazobactam 10 mcg): 22 mm
Zone of Inhibition (E. coli S-112; [12]): 15 mm
Interpretation of zone as per CLSI recommendations (E. coli S-112; Table 6, ESBL inhibitor 0 mcg): (I)
Interpretation of zone as per CLSI recommendations (E. coli S-112; [13]): (S)
Zone of Inhibition (E. coli S-112; with Tazobactam 10 mcg): 20 mm

MIC (E. cloacae M-20; with Tazobactam 4 mcg): >64 µg/mL
MIC (E. cloacae M-20; with Tazobactam 8 mcg): >64 µg/mL
MIC (E. cloacae M-20; [7]): > 128 µg/mL
MIC (E. coli 7MP [1]; with Tazobactam 4 mcg): >64 µg/mL
MIC (E. coli 7MP [1]; with Tazobactam 8 mcg): >64 µg/mL
MIC (E. coli 7MP [1]; [8]): > 128 µg/mL
MIC (E. coli B-89 [2]; with Tazobactam 4 mcg): >64 µg/mL
MIC (E. coli B-89 [2]; with Tazobactam 8 mcg): >64 µg/mL
MIC (E. coli B-89 [2]; [9]): > 128 µg/mL
MIC (E. coli B123; [10]): > 128 µg/mL
MIC (E. coli B123; with Tazobactam 4 mcg): > 64 µg/mL
MIC (E. coli B123; with Tazobactam 8 mcg): > 64 µg/mL
MIC (E. coli M50 [3]; [11]): > 128 µg/mL
MIC (E. coli M50 [3]; with Tazobactam 4 mcg): >64 µg/mL
MIC (E. coli M50 [3]; with Tazobactam 8 mcg): >64 µg/mL
Structure (SMILES): COCC1=C(C(=O)O)N2C(=O)[C@@H](NC(=O)/C(=N\OC)c3csc(N)n3)[C@H]2SC1 [Cefpodoxime]

Reference: patent US20160175318A1, “COMPOSITIONS COMPRISING ANTIBACTERIAL AGENT AND TAZOBACTAM” (WOCKHARDT LIMITED, priority 2013, published 2016)
